Measured values published in patent US12084472B2 (Ardelyx, Inc., priority 2015, dated 2024).

target: T1, human TGR5 (Homo sapiens, UniProt Q8TDU6); assay: Cell-based TGR5 assay (cAMP generation, HTRF); conditions: HEK293 cells stably transfected with human TGR5; cAMP by HTRF; 30 minutes at 37° C.; read-out: pEC50 Human TGR5 (converted)
T1 construct: expressed in transfected cells; host or cells: HEK293
T1 sequence (Q8TDU6 1-330): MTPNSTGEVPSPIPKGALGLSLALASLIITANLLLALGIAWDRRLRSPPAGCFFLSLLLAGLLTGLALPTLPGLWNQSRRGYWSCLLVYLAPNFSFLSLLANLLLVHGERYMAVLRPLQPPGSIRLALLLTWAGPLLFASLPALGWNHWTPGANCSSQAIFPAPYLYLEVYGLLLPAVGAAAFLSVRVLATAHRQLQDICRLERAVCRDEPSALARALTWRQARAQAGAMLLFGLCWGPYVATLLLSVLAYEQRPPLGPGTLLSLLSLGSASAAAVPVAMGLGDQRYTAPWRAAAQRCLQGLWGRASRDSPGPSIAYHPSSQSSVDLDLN
In short: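 Read-out was HTRF detection of cAMP, converted to concentration via a standard curve and fitted (3-parameter logistic) for pEC50 and maximal response. Agonist stimulation used HEK293 cells stably transfected with human TGR5, incubated 30 min at 37° C in IBMX-containing buffer at 0.05 nM to 10 μM compound.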

| Structure (SMILES) | EC50 [nM] |
| --- | --- |
| O=C(O)CCC(CCC(=O)O)(CCC(=O)O)NC(=O)CCCCc1cc(Cl)c(COC2(c3cnccc3-c3ccccc3OC3CC3)CC2)cc1Cl [Compound I-102, 4-(2-carboxyethyl)-4-{5-[2,5-dichloro-4-({1-[4-(2-cyclopropoxyphenyl)pyridin-3-yl]cyclopropoxy}methyl)phenyl]pentanamido}heptanedioic acid] | 126 to 1000 |
| O=C(NC[C@H](O)[C@@H](O)[C@H](O)[C@H](O)CO)[C@H]1[C@@H]2CN(S(=O)(=O)c3ccc(Cl)c(COC4(c5cnccc5-c5ccccc5OC5CC5)CC4)c3)C[C@@H]21 [Compound I-435, (1R,5S,6S)-3-[4-chloro-3-({1-[4-(2-cyclopropoxyphenyl)pyridin-3-yl]cyclopropoxy}methyl)benzenesulfonyl]-N-[(2S,3R,4R,5R)-2,3,4,5,6-pentahydroxyhexyl]-3-azabicyclo[3.1.0]hexane-6-carboxamide] | < 100 |
| CCNC(=O)CCN(C[C@H](O)[C@@H](O)[C@H](O)[C@H](O)CO)C(=O)CCCSc1ccc(Cl)c(COC2(c3cnccc3-c3ccccc3OC3CC3)CC2)c1 [Compound I-672, 4-{[4-chloro-3-({1-[4-(2-cyclopropoxyphenyl)pyridin-3-yl]cyclopropoxy}methyl)phenyl]sulfanyl}-N-[2-(ethylcarbamoyl)ethyl]-N-[(2S,3R,4R,5R)-2,3,4,5,6-pentahydroxyhexyl]butanamide] | 126 to 1000 |
| CCOc1cc(F)c(F)cc1-c1ccncc1C1(NCc2cc(Cl)ccc2Cl)CC1 [Compound I-15, N-[(2,5-dichlorophenyl)methyl]-1-[4-(2-ethoxy-4,5-difluorophenyl)pyridin-3-yl]cyclopropan-1-amine] | 126 to 1000 |
| NC(=O)CN(C[C@H](O)[C@@H](O)[C@H](O)[C@H](O)CO)C(=O)CCCSc1ccc(Cl)c(COC2(c3cnccc3-c3ccccc3OC3CC3)CC2)c1 [Compound I-663, N-(carbamoylmethyl)-4-{[4-chloro-3-({1-[4-(2-cyclopropoxyphenyl)pyridin-3-yl]cyclopropoxy}methyl)phenyl]sulfanyl}-N-[(2S,3R,4R,5R)-2,3,4,5,6-pentahydroxyhexyl]butanamide] | 126 to 1000 |

Other lines, results leading:

| EC50 [nM] | Structure (SMILES) |
| --- | --- |
| 126 to 1000 | Cc1cc(CNC2(c3cnccc3-c3ccccc3OC3CC3)CC2)c(Cl)cc1CCCCNC(=O)NC[C@H](O)[C@@H](O)[C@H](O)[C@H](O)CO (stereo in doubt) [Compound I-151, 1-(4-{5-chloro-4-[({1-[4-(2-cyclopropoxyphenyl)pyridin-3-yl]cyclopropyl}amino)methyl]-2-methylphenyl}butyl)-3-[(2S,3R,4R,5R)-2,3,4,5,6-pentahydroxyhexyl]urea] |
| 126 to 1000 | Cc1ccc(SCCCCC(=O)N(C)C[C@H](O)[C@@H](O)[C@H](O)[C@H](O)CO)nc1CNC1(c2cnccc2-c2ccccc2OC2CC2)CC1 [Compound I-495, 5-([6-[([1-[4-(2-Cyclopropoxyphenyl)pyridin-3-yl]cyclopropyl]amino)methyl]-5-methylpyridin-2-yl]sulfanyl)-N-methyl-N-[(2S,3R,4R,5R)-2,3,4,5,6-pentahydroxyhexyl]pentanamide] |
| < 100 | COCCN(CCCC(C)c1ccc(C)c(CNC2(c3cnccc3-c3ccccc3OC3CC3)CC2)c1)C(=O)[C@@H](O)[C@@H](O)[C@H](O)[C@@H](O)CO (stereo partly drawn) [Compound I-302, (2S,3S,4R,5S)-N-(4-{3-[({1-[4-(2-cyclopropoxyphenyl)pyridin-3-yl]cyclopropyl}amino)methyl]-4-methylphenyl}pentyl)-2,3,4,5,6-pentahydroxy-N-(2-methoxyethyl)hexanamide] |
| < 100 | Cc1cc(COC2(c3cnccc3-c3ccccc3OC3CC3)CC2)c(Cl)cc1CCCCNC(=O)N(CCO)C[C@H](O)[C@@H](O)[C@H](O)[C@H](O)CO [Compound I-107, 1-{4-[5-chloro-4-({1-[4-(2-cyclopropoxyphenyl)pyridin-3-yl]cyclopropoxy}methyl)-2-methylphenyl]butyl}-3-(2-hydroxyethyl)-3-[(2S,3R,4R,5R)-2,3,4,5,6-pentahydroxyhexyl]urea] |
